Data: patent US20260248766A1, “GLUCOKINASE ACTIVATOR FOR COGNITIVE DISORDERS AND NEURODEGENERATIVE DISEASES” (HUA MEDICINE (SHANGHAI) LTD., priority 2023, published 2026)

What was measured:
Assay type in all cases: in vivo, rat
GK rats [1] = assay: Fasting blood glucose in GK rats under long-term treatment; conditions: 8 mg/kg by gavage twice daily from six weeks of age, tested at weeks 6, 8, 12, 16, 20, 29, 31, FIG. 1
Excerpt: Goto-Kakizaki (GK) rats are a non-obese, spontaneously occurring type 2 diabetes rat model obtained through repeated inbreeding of Wistar rats with glucose tolerance at the upper limit over several generations. […] The hippocampus is a key functional brain region regulating learning and memory abilities. Due to the presence of progressive diabetes symptoms, typical neurodegenerative diseases, and memory deficits, GK rats can be used to evaluate the effects of a drug on preventing memory decline.
(§1) GK rats were randomly divided into the following treatment groups: a GK rat-solvent treatment group (n=9) and a GK rat-Dorzagliatin (8 mg/kg) treatment group (n=8). Age-matched Wistar rats were used as the normal control group, i.e., the Wistar rat-solvent group (n=9). The treatment began at six weeks of age. The rats were administered either the solvent or Dorzagliatin by gavage twice daily, morning and evening. Peripheral blood was collected multiple times from the animals throughout the growth cycle, and the fasting blood glucose levels of the animals were tested (the fasting blood glucose levels of the three groups of rats were tested and analyzed at weeks 6, 8, 12, 16, 20, 29, and 31).

[2] = tested on: glucose transporter 1 (GLUT1); assay: Western blot of GLUT1 in hippocampus of GK rats; conditions: hippocampus of GK rats after long-term treatment; FIG. 8
Excerpt: (§2) The tissue sampling, protein extraction and quantification, preparation of the denaturated protein samples, and protein gel electrophoresis were completed successively using the steps (I) to (IV) of the above example 2.
(§3) Then, the gel obtained from the electrophoresis was used for membrane transfer. Biomarkers GLUT1, GLUT3, and GAPDH were transferred to a membrane using a semi-dry transfer method. The membrane was assembled in the following order: negative electrode-filter paper-gel-PVDF membrane-filter paper-positive electrode. The membrane transfer was performed at a constant current of 0.2 A at room temperature for 65 minutes.
(§4) After the membrane transfer was completed, the PVDF membranes (GLUT1, GLUT3, GAPDH) were blocked with non-fat milk at room temperature for 1 hour.
(§5) Calculation of the relative expression level of a protein: The western blot images were quantified using an image processing software ImageJ, and the gray value of a target band was measured and used to characterize the protein expression level of the target band. The gray value of a target protein was divided by the gray value of the internal reference protein GAPDH to perform normalization, which characterized the relative expression level of the target band. Statistical analysis was performed on the normalized value of each target band.

[3] = tested on: insulin receptor isoform IR-A protein; assay: Western blot of IR-A protein in hippocampus of GK rats; conditions: hippocampus of GK rats after 37 weeks of treatment (43 weeks old); FIG. 5
Procedure: (§6) GK rats were euthanized after 37 weeks of treatment, i.e., when the rats were 43 weeks old, and hippocampal tissue of the GK rats was collected for western blotting to detect the protein expression levels of the biomarkers.
(§7) Animals under anesthesia were rapidly decapitated and their brains were removed in a hypothermic environment. The hippocampal tissue was separated on ice, placed in cryovials, flash-frozen in liquid nitrogen, and then stored in a −80° C. freezer for later use.
(§8) • (1) The tissue homogenizer (TissueLyser II high-throughput tissue homogenizer, QIAGEN) was pre-cooled at −20° C. The hippocampal tissue was taken out from the −80° C. freezer. […]
(§9) Based on the protein concentration determined in step (II), an appropriate amount of protein lysis buffer was added to adjust the protein concentration of each group to a suitable level. […]
(§10) After the membrane transfer was completed, the PVDF membranes were blocked with non-fat milk at room temperature for 1 hour. […] The eluted PVDF membranes were scanned using an electrochemiluminescence (ECL) method with a contact-based non-destructive quantitative imaging instrument (E-blot) to give a western blot image. […]

[4] = tested on: ionotropic glutamate receptor subunit GluN2B; assay: Western blot of GluN2B in hippocampus of GK rats; conditions: hippocampus of GK rats after long-term treatment; FIG. 12
Excerpt: as §2
(§11) Then, the gel obtained from the electrophoresis was used for membrane transfer. Biomarkers GluN2A and GluN2B were transferred to a membrane using a wet transfer method. The membrane was assembled in the following order: negative electrode-sponge-filter paper-gel-PVDF membrane-filter paper-sponge-positive electrode. The membrane transfer was performed at a constant voltage of 100 V in an ice bath for 70 minutes.
(§12) After the membrane transfer was completed, the PVDF membranes were blocked with BSA or non-fat milk (GluN2A and GluN2B membranes were blocked with BSA, and GAPDH membrane was blocked with non-fat milk), respectively, at room temperature for 1 hour. […] The eluted PVDF membranes were scanned using an electrochemiluminescence (ECL) method with a contact-based non-destructive quantitative imaging instrument (E-blot) to give a western blot image.
(§13) Calculation of the relative expression level of a protein: The western blot images were quantified using an image processing software ImageJ, and the gray value of a target band was measured and used to characterize the protein expression level of the target band. […]

[5] = tested on: glucose transporter 3 (GLUT3); assay: Western blot of GLUT3 in hippocampus of GK rats; conditions: hippocampus of GK rats after long-term treatment; FIG. 9
Excerpt: as §2, §3, §4, §5

GK rats [6] = assay: Morris water maze spatial memory test (probe test) in GK rats; conditions: 8 mg/kg by gavage twice daily, about 27 weeks of treatment (33 weeks old), 1 minute probe test
Procedure: as §1
The Morris water maze test is a commonly used behavioral method to assess the spatial memory, working memory, and spatial discrimination abilities of rodents. […]
Preparation of the experimental environment: The laboratory environment was kept quiet. […] During the test, the latent period of escape, swimming path (distance), speed, and quadrant preference of a rat were recorded using the ANY-maze system. […]
Spatial memory test (probe test): The spatial memory test was performed 24 hours after the end of the training phase. […] The time spent in the original platform quadrant and the swimming distances were recorded, and the data of each group of animals were statistically analyzed.

[7] = tested on: ionotropic glutamate receptor subunit GluN2A; assay: Western blot of GluN2A in hippocampus of GK rats; conditions: hippocampus of GK rats after long-term treatment; FIG. 11
Excerpt: as §2, §11, §12, §13

[8] = tested on: insulin receptor isoform IR-B protein; assay: Western blot of IR-B protein in hippocampus of GK rats; conditions: hippocampus of GK rats after 37 weeks of treatment (43 weeks old); FIG. 6
Procedure: as §6, §7, §8, §9, §10

CC(C)C[C@@H](C(=O)Nc1ccn(C[C@@H](O)CO)n1)N1CC(Oc2ccccc2Cl)=CC1=O [Dorzagliatin]
fasting blood glucose levels vs GK rat-solvent group (GK rats [1]): significantly lower than those of the GK rat-solvent group | normalized value of GLUT1 band (gray value / GAPDH, mean±SEM) [2]: 1.67±0.06 | normalized value of IR-A protein band (gray value / GAPDH, mean±SEM) [3]: 1.46±0.08 | normalized value of GluN2B band (gray value / GAPDH, mean±SEM) [4]: 0.87±0.02 | normalized value of GLUT3 band (gray value / GAPDH, mean±SEM) [5]: 1.22±0.13 | time spent in the original platform quadrant (mean±SEM) (GK rats [6]; FIG. 2): 20.1 s | swimming distance in the original platform quadrant (mean±SEM) (GK rats [6]; FIG. 3): 4.21 m | normalized value of GluN2A band (gray value / GAPDH, mean±SEM) [7]: 1.05±0.07 | normalized value of IR-B protein band (gray value / GAPDH, mean±SEM) [8]: 1.64±0.06
